Results: DBAASP
Values after ≈ are worked out from the molar mass of the structure shown.

Tests used:
Experiment in all cases: ≥ marks a high value that may be exact or a test limit, other limits are often not marked, values filed in µg/mL are converted to µM
Escherichia coli BL21 = system: Escherichia coli BL21
[1] = system: Pseudomonas aeruginosa PAO1
[2] = system: Streptococcus pyogenes M1T1 5448
[3] = system: Escherichia coli NCTC 10418
[4] = system: Batrachochytrium dendrobatidis JEL-197
[5] = system: Staphylococcus aureus ATCC 25923
[6] = system: Escherichia coli ATCC 25726
Escherichia coli MG1655 = system: Escherichia coli MG1655

MIC (Escherichia coli BL21) | MIC [1] | MIC [2] | SMILES | also measured
4 µM (≈ 11.8 µg/mL) | 64 µM (≈ 189 µg/mL) | 0.5 µM (≈ 1.47 µg/mL) | CC[C@H](C)[C@H](NC(=O)[C@H](CCCCN)NC(=O)CNC(=O)[C@H](Cc1ccccc1)NC(=O)[C@H](CCCCN)NC(=O)[C@H](CCCN=C(N)N)NC(=O)[C@H](CC(C)C)NC(=O)[C@H](Cc1ccc(O)cc1)NC(=O)[C@H](CCC(=O)O)NC(=O)[C@H](CC(C)C)NC(=O)[C@H](CC(C)C)NC(=O)[C@H](CCC(=O)O)NC(=O)[C@H](CCCCN)NC(=O)[C@@H](NC(=O)[C@H](CC(C)C)NC(=O)[C@H](CCCN=C(N)N)NC(=O)[C@H](CCC(N)=O)NC(=O)[C@H](C)NC(=O)CNC(=O)[C@H](C)N)[C@@H](C)O)C(=O)N[C@@H](C)C(=O)N[C@@H](CCCN=C(N)N)C(=O)N[C@@H](CCCCN)C(=O)N[C@@H](C)C(=O)N[C@@H](Cc1c[nH]c2ccccc12)C(=O)O [AGAQRLTKELLEYLRKFGKIARKAW] | 
0.5 µM (≈ 1.53 µg/mL) | 16 µM (≈ 48.9 µg/mL) | 0.5 µM (≈ 1.53 µg/mL) | CC[C@H](C)[C@H](NC(=O)[C@H](CCCCN)NC(=O)[C@H](CCCCN)NC(=O)[C@H](CCCCN)NC(=O)[C@H](CC(C)C)NC(=O)[C@H](Cc1ccccc1)NC(=O)[C@H](CCC(N)=O)NC(=O)[C@H](CCCN=C(N)N)NC(=O)[C@@H](NC(=O)[C@@H](NC(=O)[C@H](CCC(=O)O)NC(=O)[C@H](CCCCN)NC(=O)CNC(=O)[C@H](C)N)[C@@H](C)O)[C@@H](C)CC)C(=O)N[C@@H](CCC(N)=O)C(=O)N[C@@H](CCC(=O)O)C(=O)N[C@@H](Cc1c[nH]c2ccccc12)C(=O)N[C@@H](CCCCN)C(=O)N[C@@H](CCCCN)C(=O)N[C@@H](CCCN=C(N)N)C(=O)N[C@@H](C)C(=O)N[C@H](C(=O)N[C@H](C(=O)N[C@@H](C)C(=O)N[C@@H](Cc1c[nH]c2ccccc12)C(=O)O)[C@@H](C)CC)[C@@H](C)O [AGKETIRQFLKKKIQEWKKRATIAW] | 
16 µM (≈ 49 µg/mL) | > 128 µM | 4 µM (≈ 12.3 µg/mL) | CC[C@H](C)[C@H](NC(=O)[C@H](Cc1ccccc1)NC(=O)[C@H](C)NC(=O)[C@H](CCCCN)NC(=O)[C@H](CCCCN)NC(=O)CNC(=O)[C@H](CCCN=C(N)N)NC(=O)[C@H](CCCCN)NC(=O)[C@H](CCCN=C(N)N)NC(=O)[C@H](CC(C)C)NC(=O)[C@H](CCC(=O)O)NC(=O)[C@H](CCC(=O)O)NC(=O)[C@H](CCCCN)NC(=O)[C@H](CC(C)C)NC(=O)[C@H](Cc1ccc(O)cc1)NC(=O)[C@H](CC(C)C)NC(=O)[C@@H](NC(=O)[C@H](CC(C)C)NC(=O)[C@H](C)NC(=O)[C@H](CCC(N)=O)NC(=O)[C@H](CCCN=C(N)N)NC(=O)CNC(=O)[C@H](C)N)[C@@H](C)O)C(=O)N[C@@H](Cc1c[nH]c2ccccc12)C(=O)N[C@@H](Cc1c[nH]c2ccccc12)C(=O)O [AGRQALTLYLKEELRKRGKKAFIWW] | 
2 µM (≈ 5.98 µg/mL) | 8 µM (≈ 23.9 µg/mL) | 16 µM (≈ 47.8 µg/mL) | CC[C@H](C)[C@H](NC(=O)[C@H](Cc1ccc(O)cc1)NC(=O)[C@H](CCCCN)NC(=O)[C@H](CCCCN)NC(=O)[C@H](CC(C)C)NC(=O)[C@H](CCC(=O)O)NC(=O)[C@H](CCCCN)NC(=O)[C@H](Cc1c[nH]c2ccccc12)NC(=O)[C@@H](NC(=O)[C@H](CCCN=C(N)N)NC(=O)[C@H](CCC(=O)O)NC(=O)[C@H](CO)NC(=O)CNC(=O)[C@H](C)N)[C@@H](C)CC)C(=O)N[C@@H](CCCCN)C(=O)N[C@@H](CCCCN)C(=O)NCC(=O)N[C@@H](CCCCN)C(=O)N[C@@H](CCCCN)C(=O)N[C@H](C(=O)N[C@H](C(=O)N[C@@H](CCCN=C(N)N)C(=O)N[C@@H](C)C(=O)N[C@@H](C)C(=O)N[C@@H](Cc1c[nH]c2ccccc12)C(=O)O)[C@@H](C)CC)C(C)C [AGSERIWKELKKYIKKGKKVIRAAW] | 
2 µM (≈ 6.01 µg/mL) | 16 µM (≈ 48.1 µg/mL) | 4 µM (≈ 12 µg/mL) | CC[C@H](C)[C@H](NC(=O)[C@H](CCCCN)NC(=O)CNC(=O)[C@H](Cc1ccccc1)NC(=O)[C@H](CCCCN)NC(=O)[C@H](CCCN=C(N)N)NC(=O)[C@H](CC(C)C)NC(=O)[C@H](Cc1ccc(O)cc1)NC(=O)[C@H](CCC(=O)O)NC(=O)[C@H](CC(C)C)NC(=O)[C@H](CC(C)C)NC(=O)[C@H](CCC(=O)O)NC(=O)[C@H](CCCCN)NC(=O)[C@@H](NC(=O)[C@H](CC(C)C)NC(=O)[C@H](CCCN=C(N)N)NC(=O)[C@H](CC(N)=O)NC(=O)[C@H](C)NC(=O)[C@H](CCCCN)NC(=O)[C@H](C)N)[C@@H](C)O)C(=O)N[C@@H](C)C(=O)N[C@@H](CCCN=C(N)N)C(=O)N[C@@H](CCCCN)C(=O)N[C@@H](C)C(=O)N[C@@H](Cc1c[nH]c2ccccc12)C(=O)O [AKANRLTKELLEYLRKFGKIARKAW] | 
 |  |  | CC[C@H](C)[C@H](NC(=O)[C@H](CC(N)=O)NC(=O)[C@@H](NC(=O)[C@H](C)N)C(C)C)C(=O)N1CCC[C@H]1C(=O)N[C@@H](Cc1ccccc1)C(=O)N[C@@H](CCCCN)C(=O)N[C@H](C(=O)N[C@@H](Cc1cnc[nH]1)C(=O)N[C@@H](CC(C)C)C(=O)N[C@@H](CCCN=C(N)N)C(=O)N[C@H]1CSSC[C@@H](C(=O)O)NC(=O)[C@H](Cc2ccccc2)NC(=O)[C@H](C)NC(=O)[C@H](C)NC(=O)[C@H](CCCCN)NC1=O)C(C)C [AVNIPFKVHLRCKAAFC] | MIC [3]: 20 µM (≈ 38.3 µg/mL)
 |  |  | CC[C@H](C)[C@@H]1NC(=O)[C@H](CC(C)C)NC(=O)[C@@H](NC(=O)[C@@H](NC(=O)[C@@H](NC(=O)[C@H](CCCCN)NC(=O)[C@@H]2CCCN2C(=O)[C@@H](NC(=O)[C@@H](NC(=O)[C@H](CCCN=C(N)N)NC(=O)[C@H](C)NC(=O)[C@H](C)NC(=O)[C@@H](NC(=O)CNC(=O)[C@H](C)NC(=O)[C@H](CC(C)C)NC(=O)[C@H](CCSC)NC(=O)[C@@H]2CCCN2C(=O)[C@H](Cc2ccccc2)NC(=O)[C@@H](N)Cc2ccccc2)C(C)C)C(C)C)C(C)C)C(C)C)[C@@H](C)CC)CSSC[C@@H](C(=O)O)NC(=O)[C@H](CCCCN)NC(=O)[C@H](CCCCN)NC(=O)[C@H]([C@@H](C)O)NC1=O [FFPMLAGVAARVVPKVICLITKKC] | MIC [4]: 6.25 µM (≈ 16.3 µg/mL); MIC [5]: 12.5 µM (≈ 32.5 µg/mL); MIC [6]: ≥ 50 µM
 |  |  | CC[C@H](C)[C@H](NC(=O)CN)C(=O)N[C@@H](CC(C)C)C(=O)N[C@@H](CC(=O)O)C(=O)N[C@H](C(=O)N[C@H](C(=O)N[C@@H](CCCCN)C(=O)NCC(=O)N[C@H](C(=O)N[C@@H](C)C(=O)N[C@@H](CCCCN)C(=O)N[C@@H](CC(=O)O)C(=O)N[C@H](C(=O)N[C@@H](C)C(=O)N[C@@H](C)C(=O)N[C@@H](Cc1cnc[nH]1)C(=O)N[C@@H](CC(C)C)C(=O)N[C@@H](CC(C)C)C(=O)N[C@@H](CC(N)=O)C(=O)N[C@@H](CCSC)C(=O)N[C@H](C(=O)N[C@@H](CCCCN)C(=O)N[C@H]1CSSC[C@@H](C(=O)O)NC(=O)CNC(=O)[C@H]([C@@H](C)O)NC(=O)[C@H]([C@@H](C)CC)NC(=O)[C@H](CCCCN)NC1=O)C(C)C)C(C)C)C(C)C)C(C)C)[C@@H](C)O [GILDTVKGVAKDVAAHLLNMVKCKITGC] | MIC [4]: ≥ 50 µM; MIC [5]: 80 µM (≈ 232 µg/mL); MIC [6]: ≥ 160 µM
 |  |  | CC[C@H](C)[C@H](NC(=O)[C@H](CCCCN)NC(=O)CNC(=O)[C@H](CC(C)C)NC(=O)[C@H](Cc1ccccc1)NC(=O)[C@H](CCC(N)=O)NC(=O)[C@H](Cc1ccccc1)NC(=O)[C@@H](N)C(C)C)C(=O)N[C@H](C(=O)N[C@@H](Cc1cnc[nH]1)C(=O)N[C@@H](Cc1cnc[nH]1)C(=O)N[C@H](C(=O)NCC(=O)N[C@@H](CC(N)=O)C(=O)N[C@@H](Cc1ccccc1)C(=O)N[C@H](C(=O)N[C@@H](C)C(=O)NCC(=O)N[C@@H](Cc1ccccc1)C(=O)N[C@@H](CO)C(=O)N[C@@H](Cc1cnc[nH]1)C(=O)N[C@H](C(=O)N[C@@H](Cc1ccccc1)C(N)=O)C(C)C)C(C)C)C(C)C)[C@@H](C)CC [VFQFLGKIIHHVGNFVAGFSHVF] | MIC (Escherichia coli MG1655): ≥ 128 µM
